Experimental data from US20140155580A1, “TRANSGENIC AVES PRODUCING HUMAN POLYCLONAL ANTIBODIES” (Synageva BioPharma Corp., priority 2003, published 2014).

Tested on: chicken embryonic stem cells
Experiment: Titration kill curve: cES cells in culture exposed to puromycin or neomycin
Format: cell-based
Set-up: key to Morphology of cES cells: ES: ES cells are present.; diff: ES cells are differentiated.; gone: no morphologically recognizable cells are present
Procedure: In a preferred embodiment, the concentration of puromycin required for selecting transfected cells is calculated as a titration kill curve. Titration kill curves for chicken embryonic stem cells are established by exposing cells in culture to puromycin concentrations varying from 0.0 to 1.0 μg/ml for 10 days (Table 7) and neomycin concentrations varying from 0.0 to 200 μg/ml (Table 8). The medium is changed every 2 days and fresh puromycin or neomycin is added. […] Puromycin concentrations of 0.3-1.0 μg/ml are used for selection of the transfected cultures. Neomycin concentrations over 40 μg/ml eliminated all cES cells within 7 days (Table 8).

## COc1ccc(C[C@H](N)C(=O)N[C@H]2[C@@H](O)[C@H](n3cnc4c(N(C)C)ncnc43)O[C@@H]2CO)cc1 [Puromycin, puromycin]
0.3 μg/ml puromycin, 3 changes of medium with fresh puromycin over a six day period
  Presence of ES cells in wells after exposure: absent from all wells
Puromycin 0.1 μg/ml, day 1 under selection
  Morphology of cES cells: ES
Puromycin 0.1 μg/ml, day 2 under selection
  Morphology of cES cells: ES
Puromycin 0.1 μg/ml, day 3 under selection
  Morphology of cES cells: ES
Puromycin 0.1 μg/ml, day 4 under selection
  Morphology of cES cells: ES
Puromycin 0.1 μg/ml, day 5 under selection
  Morphology of cES cells: ES
Puromycin 0.1 μg/ml, day 6 under selection
  Morphology of cES cells: ES
Puromycin 0.1 μg/ml, day 7 under selection
  Morphology of cES cells: ES
Puromycin 0.1 μg/ml, day 8 under selection
  Morphology of cES cells: ES
Puromycin 0.1 μg/ml, day 9 under selection
  Morphology of cES cells: ES
Puromycin 0.1 μg/ml, day 10 under selection
  Morphology of cES cells: ES
Puromycin 0.2 μg/ml, day 1 under selection
  Morphology of cES cells: ES
Puromycin 0.2 μg/ml, day 2 under selection
  Morphology of cES cells: ES
Puromycin 0.2 μg/ml, day 3 under selection
  Morphology of cES cells: ES
Puromycin 0.2 μg/ml, day 4 under selection
  Morphology of cES cells: ES
Puromycin 0.2 μg/ml, day 5 under selection
  Morphology of cES cells: ES
Puromycin 0.2 μg/ml, day 6 under selection
  Morphology of cES cells: ES
Puromycin 0.2 μg/ml, day 7 under selection
  Morphology of cES cells: ES
Puromycin 0.2 μg/ml, day 8 under selection
  Morphology of cES cells: ES
Puromycin 0.2 μg/ml, day 9 under selection
  Morphology of cES cells: ES
Puromycin 0.2 μg/ml, day 10 under selection
  Morphology of cES cells: ES
Puromycin 0.25 μg/ml, day 1 under selection
  Morphology of cES cells: ES
Puromycin 0.25 μg/ml, day 2 under selection
  Morphology of cES cells: ES
Puromycin 0.25 μg/ml, day 3 under selection
  Morphology of cES cells: ES
Puromycin 0.25 μg/ml, day 4 under selection
  Morphology of cES cells: ES
Puromycin 0.25 μg/ml, day 5 under selection
  Morphology of cES cells: ES
Puromycin 0.25 μg/ml, day 6 under selection
  Morphology of cES cells: diff
Puromycin 0.25 μg/ml, day 7 under selection
  Morphology of cES cells: diff
Puromycin 0.3 μg/ml, day 1 under selection
  Morphology of cES cells: ES
Puromycin 0.3 μg/ml, day 2 under selection
  Morphology of cES cells: ES
Puromycin 0.3 μg/ml, day 3 under selection
  Morphology of cES cells: diff
Puromycin 0.3 μg/ml, day 6 under selection
  Morphology of cES cells: gone
Puromycin 0.3 μg/ml, day 7 under selection
  Morphology of cES cells: gone
Puromycin 0.3 μg/ml, day 8 under selection
  Morphology of cES cells: gone
Puromycin 0.3 μg/ml, day 9 under selection
  Morphology of cES cells: gone
Puromycin 0.3 μg/ml, day 10 under selection
  Morphology of cES cells: gone
Puromycin 0.4 μg/ml, day 1 under selection
  Morphology of cES cells: ES
Puromycin 0.4 μg/ml, day 2 under selection
  Morphology of cES cells: diff
Puromycin 0.4 μg/ml, day 3 under selection
  Morphology of cES cells: gone
Puromycin 0.4 μg/ml, day 4 under selection
  Morphology of cES cells: gone
Puromycin 0.4 μg/ml, day 5 under selection
  Morphology of cES cells: gone
Puromycin 0.4 μg/ml, day 6 under selection
  Morphology of cES cells: gone
Puromycin 0.4 μg/ml, day 7 under selection
  Morphology of cES cells: gone
Puromycin 0.4 μg/ml, day 8 under selection
  Morphology of cES cells: gone
Puromycin 0.4 μg/ml, day 9 under selection
  Morphology of cES cells: gone
Puromycin 0.4 μg/ml, day 10 under selection
  Morphology of cES cells: gone
Puromycin 0.5 μg/ml, day 1 under selection
  Morphology of cES cells: diff
Puromycin 0.5 μg/ml, day 2 under selection
  Morphology of cES cells: gone
Puromycin 0.5 μg/ml, day 3 under selection
  Morphology of cES cells: gone
Puromycin 0.5 μg/ml, day 4 under selection
  Morphology of cES cells: gone
Puromycin 0.5 μg/ml, day 5 under selection
  Morphology of cES cells: gone
Puromycin 0.5 μg/ml, day 6 under selection
  Morphology of cES cells: gone
Puromycin 0.5 μg/ml, day 7 under selection
  Morphology of cES cells: gone
Puromycin 0.5 μg/ml, day 8 under selection
  Morphology of cES cells: gone
Puromycin 0.5 μg/ml, day 9 under selection
  Morphology of cES cells: gone
Puromycin 0.5 μg/ml, day 10 under selection
  Morphology of cES cells: gone
Puromycin 0.6 μg/ml, day 1 under selection
  Morphology of cES cells: diff
Puromycin 0.6 μg/ml, day 2 under selection
  Morphology of cES cells: gone
Puromycin 0.6 μg/ml, day 3 under selection
  Morphology of cES cells: gone
Puromycin 0.6 μg/ml, day 4 under selection
  Morphology of cES cells: gone
Puromycin 0.6 μg/ml, day 5 under selection
  Morphology of cES cells: gone
Puromycin 0.6 μg/ml, day 6 under selection
  Morphology of cES cells: gone
Puromycin 0.6 μg/ml, day 7 under selection
  Morphology of cES cells: gone
Puromycin 0.6 μg/ml, day 8 under selection
  Morphology of cES cells: gone
Puromycin 0.6 μg/ml, day 9 under selection
  Morphology of cES cells: gone
Puromycin 0.6 μg/ml, day 10 under selection
  Morphology of cES cells: gone
Puromycin 0.7 μg/ml, day 1 under selection
  Morphology of cES cells: diff
Puromycin 0.7 μg/ml, day 2 under selection
  Morphology of cES cells: gone
Puromycin 0.7 μg/ml, day 3 under selection
  Morphology of cES cells: gone
Puromycin 0.7 μg/ml, day 4 under selection
  Morphology of cES cells: gone
Puromycin 0.7 μg/ml, day 5 under selection
  Morphology of cES cells: gone
Puromycin 0.7 μg/ml, day 6 under selection
  Morphology of cES cells: gone
Puromycin 0.7 μg/ml, day 7 under selection
  Morphology of cES cells: gone
Puromycin 0.7 μg/ml, day 8 under selection
  Morphology of cES cells: gone
Puromycin 0.7 μg/ml, day 9 under selection
  Morphology of cES cells: gone
Puromycin 0.7 μg/ml, day 10 under selection
  Morphology of cES cells: gone
Puromycin 0.8 μg/ml, day 1 under selection
  Morphology of cES cells: gone
Puromycin 0.8 μg/ml, day 2 under selection
  Morphology of cES cells: gone
Puromycin 0.8 μg/ml, day 3 under selection
  Morphology of cES cells: gone
Puromycin 0.8 μg/ml, day 4 under selection
  Morphology of cES cells: gone
Puromycin 0.8 μg/ml, day 5 under selection
  Morphology of cES cells: gone
Puromycin 0.8 μg/ml, day 6 under selection
  Morphology of cES cells: gone
Puromycin 0.8 μg/ml, day 7 under selection
  Morphology of cES cells: gone
Puromycin 0.8 μg/ml, day 8 under selection
  Morphology of cES cells: gone
Puromycin 0.8 μg/ml, day 9 under selection
  Morphology of cES cells: gone
Puromycin 0.8 μg/ml, day 10 under selection
  Morphology of cES cells: gone
